According to PubChem BioAssay AID1963842 (Molecular Pharmacology Branch, DTP, NCI, 2024):

System: 677734-321-R-J1-PDC complex spheroid viability
Assay: Anticancer human tumor 677734-321-R-J1-PDC patient-derived soft tissue sarcoma cell line growth inhibition [POLQ]
Settings: for IC50: curve of first compound; for viability, T/C: stronger effect = lower value
Procedure, shortened: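 Patient-derived tumour cells were co-cultured with HUVEC and mesenchymal stem cells as multicellular spheroids at 37 °C. They were treated with POLQ inhibitors (novobiocin, ART-558, RP6685) alone or combined with other agents. Top concentrations were at or near clinical Cmax (otherwise 10 microM; SN-38 at 1 microM), decreasing in half-log steps.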
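Note: spheroids exposed to compounds for one week.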
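Throughout, for viability, T/C: 100% = vehicle DMSO treated spheroids.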

## CC(=O)O[C@H]1C(=O)[C@@]2(C)[C@H]([C@H](OC(=O)c3ccccc3)[C@]3(O)C[C@H](OC(=O)[C@H](O)[C@@H](NC(=O)c4ccccc4)c4ccccc4)C(C)=C1C3(C)C)[C@]1(OC(C)=O)CO[C@@H]1C[C@@H]2O + Nc1ccc(C#CCN(C(=O)Cc2ncc(C(F)(F)F)cc2C(F)(F)F)c2ccc(F)cc2)nn1
Second compound 0.0316 µM
  IC50: < 9.49 nM
Second compound 0.1 µM
  IC50: < 9.49 nM
Second compound 0.316 µM
  IC50: < 9.49 nM
Second compound 1 µM
  IC50: < 9.49 nM
Second compound 3.16 µM
  IC50: < 9.49 nM
Second compound 10 µM
  IC50: < 9.49 nM
Second compound 0.0316 µM, first compound 0.00949 µM
  viability, T/C: 21.6%
Second compound 0.0316 µM, first compound 0.03 µM
  viability, T/C: 15%
Second compound 0.0316 µM, first compound 0.0949 µM
  viability, T/C: 13.9%
Second compound 0.0316 µM, first compound 0.3 µM
  viability, T/C: 14.6%
Second compound 0.0316 µM, first compound 0.949 µM
  viability, T/C: 14.9%
Second compound 0.0316 µM, first compound 3 µM
  viability, T/C: 17.6%
Second compound 0.1 µM, first compound 0.00949 µM
  viability, T/C: 32.9%
Second compound 0.1 µM, first compound 0.03 µM
  viability, T/C: 18.3%
Second compound 0.1 µM, first compound 0.0949 µM
  viability, T/C: 14.2%
Second compound 0.1 µM, first compound 0.3 µM
  viability, T/C: 13.9%
Second compound 0.1 µM, first compound 0.949 µM
  viability, T/C: 14.3%
Second compound 0.1 µM, first compound 3 µM
  viability, T/C: 16.1%
Second compound 0.316 µM, first compound 0.00949 µM
  viability, T/C: 21.7%
Second compound 0.316 µM, first compound 0.03 µM
  viability, T/C: 17.9%
Second compound 0.316 µM, first compound 0.0949 µM
  viability, T/C: 14.7%
Second compound 0.316 µM, first compound 0.3 µM
  viability, T/C: 11.6%
Second compound 0.316 µM, first compound 0.949 µM
  viability, T/C: 13.8%
Second compound 0.316 µM, first compound 3 µM
  viability, T/C: 15.7%
Second compound 1 µM, first compound 0.00949 µM
  viability, T/C: 32.7%
Second compound 1 µM, first compound 0.03 µM
  viability, T/C: 17.1%
Second compound 1 µM, first compound 0.0949 µM
  viability, T/C: 16.6%
Second compound 1 µM, first compound 0.3 µM
  viability, T/C: 15%
Second compound 1 µM, first compound 0.949 µM
  viability, T/C: 13.3%
Second compound 1 µM, first compound 3 µM
  viability, T/C: 12.2%
Second compound 3.16 µM, first compound 0.00949 µM
  viability, T/C: 34.1%
Second compound 3.16 µM, first compound 0.03 µM
  viability, T/C: 16.9%
Second compound 3.16 µM, first compound 0.0949 µM
  viability, T/C: 11.8%
Second compound 3.16 µM, first compound 0.3 µM
  viability, T/C: 13.4%
Second compound 3.16 µM, first compound 0.949 µM
  viability, T/C: 13.5%
Second compound 3.16 µM, first compound 3 µM
  viability, T/C: 16.4%
Second compound 10 µM, first compound 0.00949 µM
  viability, T/C: 28.8%
Second compound 10 µM, first compound 0.03 µM
  viability, T/C: 16.4%
Second compound 10 µM, first compound 0.0949 µM
  viability, T/C: 12.6%
Second compound 10 µM, first compound 0.3 µM
  viability, T/C: 13.4%
Second compound 10 µM, first compound 0.949 µM
  viability, T/C: 13%
Second compound 10 µM, first compound 3 µM
  viability, T/C: 16.8%

## CC[C@@]1(O)C(=O)OCc2c1cc1n(c2=O)Cc2cc3c(CN(C)C)c(O)ccc3nc2-1 + Nc1ccc(C#CCN(C(=O)Cc2ncc(C(F)(F)F)cc2C(F)(F)F)c2ccc(F)cc2)nn1
Second compound 0.0316 µM
  IC50: 19.9 nM
Second compound 0.1 µM
  IC50: 21.2 nM
Second compound 0.316 µM
  IC50: 22.1 nM
Second compound 1 µM
  IC50: 22.6 nM
Second compound 3.16 µM
  IC50: 22.4 nM
Second compound 10 µM
  IC50: 22.1 nM
Second compound 0.0316 µM, first compound 0.000316 µM
  viability, T/C: 108%
Second compound 0.0316 µM, first compound 0.001 µM
  viability, T/C: 115%
Second compound 0.0316 µM, first compound 0.00316 µM
  viability, T/C: 117%
Second compound 0.0316 µM, first compound 0.01 µM
  viability, T/C: 86.2%
Second compound 0.0316 µM, first compound 0.0316 µM
  viability, T/C: 25.9%
Second compound 0.0316 µM, first compound 0.1 µM
  viability, T/C: 15.3%
Second compound 0.1 µM, first compound 0.000316 µM
  viability, T/C: 99.3%
Second compound 0.1 µM, first compound 0.001 µM
  viability, T/C: 97.7%
Second compound 0.1 µM, first compound 0.00316 µM
  viability, T/C: 99.2%
Second compound 0.1 µM, first compound 0.01 µM
  viability, T/C: 87.3%
Second compound 0.1 µM, first compound 0.0316 µM
  viability, T/C: 30.3%
Second compound 0.1 µM, first compound 0.1 µM
  viability, T/C: 13%
Second compound 0.316 µM, first compound 0.000316 µM
  viability, T/C: 116%
Second compound 0.316 µM, first compound 0.001 µM
  viability, T/C: 105%
Second compound 0.316 µM, first compound 0.00316 µM
  viability, T/C: 90.4%
Second compound 0.316 µM, first compound 0.01 µM
  viability, T/C: 98.2%
Second compound 0.316 µM, first compound 0.0316 µM
  viability, T/C: 28.1%
Second compound 0.316 µM, first compound 0.1 µM
  viability, T/C: 14.9%
Second compound 1 µM, first compound 0.000316 µM
  viability, T/C: 110%
Second compound 1 µM, first compound 0.001 µM
  viability, T/C: 99.9%
Second compound 1 µM, first compound 0.00316 µM
  viability, T/C: 103%
Second compound 1 µM, first compound 0.01 µM
  viability, T/C: 89.9%
Second compound 1 µM, first compound 0.0316 µM
  viability, T/C: 33.6%
Second compound 1 µM, first compound 0.1 µM
  viability, T/C: 12.8%
Second compound 3.16 µM, first compound 0.000316 µM
  viability, T/C: 102%
Second compound 3.16 µM, first compound 0.001 µM
  viability, T/C: 102%
Second compound 3.16 µM, first compound 0.00316 µM
  viability, T/C: 104%
Second compound 3.16 µM, first compound 0.01 µM
  viability, T/C: 102%
Second compound 3.16 µM, first compound 0.0316 µM
  viability, T/C: 27.7%
Second compound 3.16 µM, first compound 0.1 µM
  viability, T/C: 17.6%
Second compound 10 µM, first compound 0.000316 µM
  viability, T/C: 135%
Second compound 10 µM, first compound 0.001 µM
  viability, T/C: 106%
Second compound 10 µM, first compound 0.00316 µM
  viability, T/C: 92.5%
Second compound 10 µM, first compound 0.01 µM
  viability, T/C: 83.7%
Second compound 10 µM, first compound 0.0316 µM
  viability, T/C: 29.4%
Second compound 10 µM, first compound 0.1 µM
  viability, T/C: 13.8%
